Values quoted from earlier work in patent US20170095494A1, “Process for the Extraction of Strawberry P-Coumaroyl Hexose and/or Polyphenols, Extract and Uses Thereof” (Nutra Canada Inc., priority 2014, published 2017).

Tested on: AMPK
Settings: Bhattacharya et al, 2013, Yoon et al

O=C(O)/C=C/c1ccc(O)cc1 [p-coumaric acid]
impact on AMPK and glucose uptake in muscle cells: increased glucose uptake
